Assay results: patent publication US5618812A, “Benzodiazepine derivatives” (Merck Sharp & Dohme, Ltd., priority 1992, dated 1997)
Counter-ions that a name gives are not always drawn. Like-named read-outs stand apart in the source and are kept apart here.

Columns and labels:
CCK-B = target: T1, CCK-B (Cavia porcellus, UniProt H0VZC5); assay: displacement of specific 125I-CCK from guinea pig brain (CCK-B receptor binding)
T1 construct: guinea pig brain (CCK-B); from tissue; host or cells: guinea pig brain
T1 sequence (H0VZC5 1-426): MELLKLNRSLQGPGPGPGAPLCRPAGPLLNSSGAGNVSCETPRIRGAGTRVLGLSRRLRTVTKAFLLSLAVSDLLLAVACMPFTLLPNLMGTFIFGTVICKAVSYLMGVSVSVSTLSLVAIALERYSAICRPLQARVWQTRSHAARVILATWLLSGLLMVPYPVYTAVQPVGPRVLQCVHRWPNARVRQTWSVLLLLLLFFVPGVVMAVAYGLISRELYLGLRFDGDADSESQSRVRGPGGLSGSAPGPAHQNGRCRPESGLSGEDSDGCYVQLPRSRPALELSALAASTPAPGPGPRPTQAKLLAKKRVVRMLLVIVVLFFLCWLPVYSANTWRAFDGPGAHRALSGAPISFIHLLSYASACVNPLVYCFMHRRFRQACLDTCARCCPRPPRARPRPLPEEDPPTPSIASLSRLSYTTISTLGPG
Protocol: (§1) The CCK-A and CCK-B antagonising activity of the compounds described herein was evaluated using the assays described in published European patent application no. 0514133. The method essentially involves determining the concentration of the test compound required to displace 50% of the specific ^125 I-CCK from rat pancreas (CCK-A) or guinea pig brain (CCK-B). The data in Table 1 were obtained for compounds of the Examples.

CCK-A = target: T2, CCK-A (Rattus norvegicus, UniProt P30551); assay: biochemical; format: binding
T2 sequence (P30551 1-444): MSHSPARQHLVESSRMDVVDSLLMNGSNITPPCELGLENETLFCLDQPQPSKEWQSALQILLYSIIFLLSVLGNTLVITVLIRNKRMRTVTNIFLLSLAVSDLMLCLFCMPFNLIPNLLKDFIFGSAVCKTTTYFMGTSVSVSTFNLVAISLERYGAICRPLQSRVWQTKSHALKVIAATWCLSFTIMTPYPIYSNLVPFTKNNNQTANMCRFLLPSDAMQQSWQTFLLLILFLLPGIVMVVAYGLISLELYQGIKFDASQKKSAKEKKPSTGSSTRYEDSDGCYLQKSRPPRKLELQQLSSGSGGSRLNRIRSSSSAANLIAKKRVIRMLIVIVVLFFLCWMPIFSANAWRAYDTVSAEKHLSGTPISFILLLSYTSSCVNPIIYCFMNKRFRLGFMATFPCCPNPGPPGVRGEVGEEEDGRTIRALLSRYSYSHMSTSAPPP
Protocol: as §1, with “(CCK-B).” for “(CCK-B). The data in Table 1 were obtained for compounds of the Examples.”

[1] = read-out: CCK RECEPTOR BINDING RESULTS IC50 125I-CCK Brain
[2] = rat pancreas (CCK-A), 125I-CCK, read-out: CCK RECEPTOR BINDING RESULTS IC50 125I-CCK Pancreas
[3] = CCK RECEPTOR BINDING RESULTS IC50 125I-CCK Brain
[4] = read-out: CCK RECEPTOR BINDING RESULTS IC50 125I-CCK Pancreas

With `CN1C(=O)C(NC(=O)Nc2ccc3c(c2)CCC3)N=C(N2CCC(C)(C)CC2)c2ccccc21` (racemic) [Example 4, N-[3(R,S)-2,3-Dihydro-5-(4,4-dimethylpiperidin-1-yl)-1-methyl-2-oxo-1H-1,4-benzodiazepin-3-yl]N'-[indan-5-yl]urea] the IC50 (CCK-B; [1]) was 1.19 nM and the IC50 (CCK-A; [2]) was 35 nM.

`CCCN1C(=O)C(NC(=O)Nc2cccc(C)c2)N=C(N(C)C2CCCCC2)c2ccccc21` (single isomer, unassigned; (+)) [Example 62, (+) 5-(N-Cyclohexyl-N-methylamino)-2,3-dihydro-2-oxo-1-propyl-1H-1,4-benzodiazepin-3-y1-N'-[3-methylphenyl]urea] gave an IC50 (CCK-B; [1]) of 35.2 nM and an IC50 (CCK-A; [2]) of 114 nM.

`Cc1cccc(NC(=O)NC2N=C(N(C)C3CCCCCC3)c3ccccc3N(C)C2=O)c1` (racemic) [Example 66, N-[3(R,S)-5-(N-Cycloheptyl-N-methylamino)-2,3-dihydro-1-methyl-2-oxo-1H-1,4-benzodiazepin-3-yl]-N'-[3-methylphenyl]urea] showed an IC50 (CCK-B; [1]) of 0.79 nM and an IC50 (CCK-A; [2]) of 83.6 nM.

In the case of `CN1C(=O)C(NC(=O)Nc2cccc(I)c2)N=C(N2CC3CCC(CC3)C2)c2ccccc21` (racemic) [Example 47, N-[3(R,S)-5-(3-Azabicyclo[3,2,2]nonan-3-yl)-2,3-dihydro-1-methyl-2-oxo-1H-1,4-benzodiazepin-3-yl]-N'-[3-iodophenyl]urea], the IC50 (CCK-B; [3]) is reported as 1.01 nM and the IC50 (CCK-A; [2]) is reported as 26.6 nM.

`Cc1cccc(NC(=O)NC2N=C(N(C)C3CCCCCC3)c3ccccc3N(C)C2=O)c1` (single isomer, unassigned; (-)) [Example 67, (-)-5-(N-Cycloheptyl-N-methylamino)-2,3-dihydro-1-methyl-2-oxo-1H-1,4-benzodiazepin-3-yl-N'-[3-methylphenyl]urea, Hydrochloride] was tested, and the IC50 (CCK-B; [1]) was 0.1 nM and the IC50 (CCK-A; [2]) was 2000 nM.

“(+)-[5-(N-Cycloheptyl-N-methylamino)-2,3-dihydro-1ethyl-2-oxo-1H-1,4-benzodiazepin-3-yl ]-N'-[5-indanyl ]urea Hydrochloride [Example 71]” gave an IC50 (CCK-B; [1]) of 86 nM and an IC50 (CCK-A; [2]) of 145 nM.

`Cc1cccc(NC(=O)NC2N=C(N3C[C@H]4CCCC[C@H]4C3)c3ccccc3N(C)C2=O)c1` (single isomer, unassigned; (+)) [Example 59, (+)-N-[2,3-Dihydro-1-methyl-5-(cis-octahydroisoindol-2-yl)-2-oxo-1H-1,4-benzodiazepin-3-yl]N'[-3-methylphenyl]urea hydrochloride] gave an IC50 (CCK-B; [1]) of 144 nM and an IC50 (CCK-A; [4]) of 9.7 nM.

`CN1C(=O)C(NC(=O)Nc2cccc(C(F)(F)F)c2)N=C(N2CC3CCC(CC3)C2)c2ccccc21` (single isomer, unassigned; (-)) [Example 55, (-)-N-[5-(3-Azabicyclo[3,2,2]nonan-3-yl)-2,3-dihydro-1-methyl]-2-oxo-1H-1,4-benzodiazepin-3-yl]-N'-[3-trifluoromethylphenyl]urea Hydrochloride] showed an IC50 (CCK-B; [3]) of 0.73 nM and an IC50 (CCK-A; [2]) of over 3000 nM.

`Cc1cccc(NC(=O)NC2N=C(N3CC4CCC3CC4)c3ccccc3N(C)C2=O)c1` (racemic) [Example 51, N-[3(R,S)-5-(2-Azabicyclo[2,2,2]octan-2-yl)-2,3-dihydro-1-methyl-2-oxo-1H-1,4-benzodiazepin-3-yl]-N'-[3-methylphenyl]urea] was tested, and the IC50 (CCK-B; [1]) was 5.49 nM and the IC50 (CCK-A; [2]) was 28.5 nM.

With `Cc1cccc(NC(=O)NC2N=C(N(C)C3CCCCC3)c3ccccc3N(C)C2=O)c1` (single isomer, unassigned; (-)) [Example 64, (-)5-(N-Cyclohexyl-N-methylamine)-2,3-dihydro-2-oxo-1-methyl-1H-1,4-benzodiazepin-3-yl-N'-[3-methylphenyl]urea. Hydrochloride] the IC50 (CCK-B; [1]) was 0.22 nM and the IC50 (CCK-A; [2]) was 2070 nM.

Molecule `C[C@@H]1CCC[C@H](C)N1C1=NC(NC(=O)Nc2ccc3c(c2)CCC3)C(=O)N(C)c2ccccc21` (stereo partly drawn) [Example 13, N-[3(R,S)-2,3-Dihydro-5-(cis-2.6-dimethylpiperidin-1-yl)-1-methyl-2-oxo-1H-1,4-benzodiazepin-3-yl]N'-[indan-5-yl]urea] has an IC50 (CCK-B; [1]) of 1.53 nM and an IC50 (CCK-A; [2]) of 496 nM.

`CC(C)CN1C(=O)C(NC(=O)Cc2c[nH]c3ccccc23)N=C(N2CCCCCC2)c2ccccc21` (racemic) [Example 94, 3(R,S)-N-(2,3-Dihydro-5-(homopiperidin-1-yl)-1-(2-methylpropyl)-2-oxo-1H-1,4-benzodiazepin-3-yl)-1H-indole-3-acetamide] gave an IC50 (CCK-B; [1]) of 119 nM and an IC50 (CCK-A; [2]) of 646 nM.

`Cc1cccc(NC(=O)NC2N=C(N3CCCC(C)(C)C3)c3ccccc3N(C)C2=O)c1` (single isomer, unassigned; (-)) [Example 26, (-)-N-[2,3-dihydro-(3,3-dimethylpiperidin-1-yl)-1-methyl-2-oxo-1H-1,4-benzodiazepin-3-yl]N'-[3-methylphenyl]urea] showed an IC50 (CCK-B; [1]) of 0.27 nM and an IC50 (CCK-A; [2]) of over 3000 nM.

`Cc1cccc(NC(=O)NC2N=C(N(C)C3CCCCC3)c3ccccc3N(C)C2=O)c1` (single isomer, unassigned; (+)) [Example 65, (+)5-(N-Cyclohexyl-N-methylamino)-2,3-dihydro-2-oxo-1-methyl-1H-1,4-benzodiazepin-3-yl-N'[3-methylphenyl]urea. Hydrochloride] gave an IC50 (CCK-B; [1]) of 13.7 nM and an IC50 (CCK-A; [2]) of 138 nM.

With `Cc1cncc(NC(=O)NC2N=C(N(C)C3CCCCCC3)c3ccccc3N(C)C2=O)c1` (racemic) [Example 86, N-[3(R,S)-5-(N-Cycloheptyl)-N-methylamino)-2,3-dihydro-1-methyl-2-oxo-1H-1,4-benzodiazepin-3-yl]-N'-[3-(5-methylpyridine)]urea] the IC50 (CCK-B; [1]) was 31.3 nM and the IC50 (CCK-A; [2]) was 831 nM.

`Cc1cccc(NC(=O)NC2N=C(N3C[C@H]4CCCC[C@H]4C3)c3ccccc3N(C)C2=O)c1` (relative stereo) [Example 57, N-[3(R,S)-2,3-Dihydro-1-methyl-5-(cis-octahydroisoindol-2-yl)-2-oxo-1H-1,4-benzodiazepin-3-yl]-N'-[3-methylphenyl]urea] gave an IC50 (CCK-B; [1]) of 4.6 nM and an IC50 (CCK-A; [2]) of 12.3 nM.

For `Cc1cccc(NC(=O)NC2N=C(N3CC4CCC(CC4)C3)c3ccccc3N(C)C2=O)c1` (single isomer, unassigned; (+)) [Example 34, (+)-N-[5-(3-Azabicyclo[3,2,2]nonan-3-yl)-2,3-dihydro-1-methyl-2-oxo-1H-1,4-benzodiazepin-3-yl]-N'-[3-methylphenyl]urea Hydrochloride], the IC50 (CCK-B; [3]) was 26.7 nM and the IC50 (CCK-A; CCK RECEPTOR BINDING RESULTS IC50 125I-CCK Pancreas, rat pancreas (CCK-A), 125I-CCK) was 6.46 nM.

Molecule `Cc1cccc(NC(=O)NC2N=C(N3CC4CCC(C4)C3)c3ccccc3N(C)C2=O)c1` (single isomer, unassigned; (+)) [Example 40, (+)-N-[5-(3-Azabicyclo[3,2,1]octan-3-yl)-2,3-dihydro-1-methyl-2-oxo-1H-1,4-benzodiazepin-3-yl]-N'-[3-methylphenyl]urea Hydrochloride] has an IC50 (CCK-B; [1]) of 36.3 nM and an IC50 (CCK-A; [4]) of 8.8 nM.

`Cc1ccc(NC(=O)NC2N=C(N3CC4CCC(CC4)C3)c3ccccc3N(C)C2=O)cc1F` (racemic) [Example 44, N-(3(R,S)-5-(3-Azabicyclo[3,2,2]nonan-3-yl)-2,3-dihydro-1-methyl-2-oxo 1H-1,4-benzodiazepin-3-yl]-N'-[3-fluoro-4-methylphenyl]urea] showed an IC50 (CCK-B; [3]) of 0.52 nM and an IC50 (CCK-A; [2]) of 70.2 nM.

Work on `CC(C)CN1C(=O)C(NC(=O)[C@@H]2Cc3ccccc3N2)N=C(N2CCCCCC2)c2ccccc21` (stereo partly drawn) [Example 93, 3(R,S)-N-(2,3-Dihydro-5-(homopiperidin-1-yl)-1-(2-methylpropyl)-2-oxo-1H-1,4-benzodiazepin-3-yl)-(2S)-indoline-2-carboxamide] yielded an IC50 (CCK-B; [1]) of 348 nM and an IC50 (CCK-A; [2]) of 101 nM.

For `Cc1cccc(NC(=O)NC2N=C(N3CC4CCC(CC4)C3)c3ccccc3N(C)C2=O)c1` (single isomer, unassigned; (-)) [Example 33, (-)-N-[5-(3-Azabicyclo[3,2,2]nonan-3-yl)-2,3-dihydro-1-methyl-2-oxo-1H-1,4-benzodiazepin-3-yl]-N'-[3-methylphenyl]urea Hydrochloride], the IC50 (CCK-B; [3]) was 0.1 nM.
